Test results published in patent US7795311B2, “Methods and compositions for the management of soil-borne fungal diseases” (Pittsburg State University, priority 2007, dated 2010).
Where “and” joins values, the source holds several entries; their conditions need not be identical. Equal entries are not always repeated.

Legend:
[1] = test system: soil-borne fungal diseases; test: 1999 and 2000 foliar treatment field trial: viability and mortality data; assay type: in vivo, soybean; conditions: 1999 foliar treatment
Description: (§1) Foliar treatments were prepared on site. R1 and R4 Foliar Carbenoxolone 1000μ/mL treatments were prepared by adding 3.785 g Carbenoxolone to 1 gallon of water and mixed until dissolved. The mixture was then sprayed directly onto foliage using specialized CO2 pressurized aerosol spray equipment set at a spray rate of 1 gallon/100 ft for four (4), twenty-five (25) foot rows and two (2) rows wide.
FIGS. 1 and 3 depict the 1999 and 2000 Foliar Treatment Viability and Mortality Data. In 1999, the Carbenoxolone concentration was varied between 125 and 1000 μg/ml diluted in one gallon of water. The treatment composition was applied to the canopy of plants at various developmental stages (V-2, R-1 and R-6). The foliar application was accomplished using the pressurized boom-spray unit attached to a tractor at reproductive stage V-2 or R-1, or by a backpack spray unit at reproductive stage R-6. The mortality and viability data were collected at developmental stage R-8, usually around week eleven (11) or twelve (12) in the plant's lifecycle. Also shown in FIGS. 1 and 3, the percent mortalities were calculated based on the number of plants that died at twelve (12) weeks of growth as compared to the total number of seeds planted per treatment. The viability percentages as shown in FIGS. 1 and 3 were calculated from the total number of seeds planted per treatment, as compared to the viability data taken at three (3) weeks of growth. The seed germination rate was greater than 99% and was determined prior to planting. […] This appears unchanged from the untreated control, which had similar percentages. […] The Carbenoxolone treatment solution having 125 μg/ml has a mortality percentage of approximately 10.4% compared to a mortality percentage of an uncontrolled of 20%.
The […] foliar treatment using Cabenoxolone also had similar results as in 1999. The mortality percentage of plants treated with a Carbenoxolone solution decreased when compared to an untreated control.

[2] = Field trial 2003-2005: seed yield; assay type: in vivo, soybean
Text: At the end of the growing seasons, marked by plant senescence, the two (2) interior yield rows were harvested using a Massey-Ferguson two-row experimental test, combined with an onboard computer processor for determining seed weight, seed moisture and collection of samples. Yield data included seed moisture and seed weight, which were used to determine the overall yield for each test plot.
Yield data was obtained from the two (2) yield rows of twenty-five (25) feet using a conversion equation which utilized the fraction of acreage predetermined test weight and adjusted moisture of the seeds harvested. Yield values represent bushels per acre adjusted for moisture and test weight. […] Multiple comparisons were tested at α=0.1. Again as with previous Figures, treatments were either untreated control seed or seeds treated with a seed coating polymer in combination with Carbenoxolone. Foliar treatments indicate that the same compound used as a seed treatment was then applied as a foliar spray at a set plant development stage (R1 or R4).

[3] = test system: soil-borne fungal diseases; test: 1999/2000 foliar application: mean disease rating and percent mortality; assay type: in vivo, soybean; conditions: dead plants / germinated plants, week 11
Text: Beginning at developmental stage V1, a visual disease rating was employed to determine the overall visual health of the plant based on foliar, pod and stem disease. The foliar disease rating system was based from the Soybean Diseases Atlas by the Southern Soybean Disease Workers (W. J. Walla, ed. 1979, Texas A&M University). A 1-5 rating system was utilized, wherein 1=0%, 2=25%, 3=50%, 4=75%, 5=100% based on leaf area affected by disease symptoms.
FIG. 2 illustrates the 1999 Mean Disease Rating for Each Foliar Application, Percent Mortality and the Statistical Significance as Measured by the Student-Newman-Keuls (“SNK”) Analysis. The disease ratings as shown in FIGS. 2 and 4 are an objective number rating assigned as a percentage of a plot infected having a rating scale of 1=0%, 2=25%, 3=50%, 4=75% and 5=100%. The SNK data comprising letters which are different are statistically significant from other letter assigned data sets, which allows the single year data to show how weather influences the outcome of the treatment. […] The mortality count was taken at week eleven (11) in the 1999 and 2000 growing seasons. As previously stated, the SNK statistical analysis illustrate the statistical significance of the data, wherein means with the same letter are not statistically different. […] Even lower, 1000 μg/ml of Carbenoxolone solution a mortality rate of 22%.

[4] = test system: Pythium, Phytophthora, Phomopsis and Rhizoctonia fungal pathogens; test: Field trial 2003-2005: soybean pre-emergence mortality by seed/foliar treatment; assay type: in vivo; design: pre-emergence mortality, average non-emergent seeds: concentration or dose not given beside the values
Text: (§2) Test plots were organized into randomized block design consisting of fifteen (15) total treatments. Treatments included either a control group, a seed treatment, foliar treatment, or a combination seed and foliar treatment. Each treatment consisted of four (4), twenty-five (25) foot rows in each test plot. The fifteen (15) treatment blocks were planted in quadruplicate for a total of sixty (60) test plots. The test plots were labeled with numerical identification markers which represent the treatment, plot, and replication number. No samples were taken from the two (2) interior rows of each plot so that they could be used for counting plant mortality and harvested for seed yields. The two (2) outside rows were used to sample plants.
(§3) Seeds were treated with stock solutions of the following treatments. Carbenoxolone disodium salt 0, 125, 250, 500 and 1000 μg/L High Grade was utilized for management of Pythium, Phytophthora, Phomopsis and Rhizoctonia fungal pathogens. Gustafson's Magnacoat® (Gustafson, LLC, Plans, Tex.) was used as a seed-coating polymer in conjunction with the other treatment and as a control treatment. For example, stock solutions were prepared in 500 mL beakers as follows: […] High Grade was prepared by adding 0.105 g of 99% pure Carbenoxolone to 65 mL deionized water and mixing using a spatula until completely dissolved, then adding 35 mL Magnacoat® and 5 mL green Pro-lzed® colorant and mixing until homogenous for a total of 105 mL.
(§4) Seeds for each row were treated separately with compounds. A 2.1 mL sample was taken from the stock solution via pipette and placed in a 200 mL glass beaker. A single row seed sample was added to the beaker and the seeds were mixed with a glass stir rod until the seeds were completely covered. The samples were then spread onto a wax sheet and allowed to dry for one (1) to two (2) hours. Each treated seed sample was placed in a labeled twenty pound (20 lb), 4×6 inch manila coin envelope.
as §1
(§5) Germination data was taken at V1 by counting the emergent plants in the two (2) inner yield rows. Plant counts were used to compare with number of seeds planted to determine pre-emergence mortality due to soil-borne early season disease pressure. At the end of the growing season at developmental stage […] when plants were mature, but before full senescence, dead plants were counted. Plant counts were used to determine mortality data for the season caused by overall disease pressure.
In the yield rows, two-hundred and forty (240) seeds were planted per row in the yield rows at the beginning of the growing season, flanked by two (2) rows (two-hundred and forty (240) seeds in each row) for plant sampling. Rows were end trimmed to final twenty-five (25) foot rows with two-hundred (200) seed per row and eight (8) seeds per foot. Mortality data was determined only from the interior yield rows. An average of these pre-emergence mortality totals, (four-hundred (400) seeds in two (2) rows) for all four (4) repetitions was taken to represent pre-emergence mortality. Pre-emergence mortality averages for each treatment with calculated standard deviations are compared in FIG. 5. Pre-emergence mortality indicates the number of plants that died before emergence. Treatments were either untreated control seed or seeds treated with the polymer in combination with Carbenoxolone. Foliar treatments indicate that the same compound used as a seed treatment was then applied as a foliar spray at a set plant development stage (R1 or R4). […]

[5] = test system: Pythium, Phytophthora, Phomopsis and Rhizoctonia fungal pathogens; test: Field trial 2003-2005: soybean viability at R8 by seed/foliar treatment; assay type: in vivo; design: viability average: concentration or dose not given beside the values
Text: as §2, §3, §4, §1
The viability data was obtained by totaling the number of healthy plants within the two (2) yield rows at the end of the growing season when plants reached developmental stage R8 and these totals were averaged and standard deviations calculated for all four (4) repetitions per treatment. […] Viability averages of all treatment repetitions for a growing year, for three (3) years of field-testing are compared in FIG. 7. Viability indicates the number of healthy plants at the end of the growing season. Similar to FIGS. 5 and 6, treatments were either untreated control seed or seeds treated with the polymer in combination with Carbenoxolone. Foliar treatments indicate that the same compound used as a seed treatment was then applied as a foliar spray at a set plant development stage (R1 or R4). Percentage is based on the average number of viable plants counted at R8.

[6] = test system: Pythium, Phytophthora, Phomopsis and Rhizoctonia fungal pathogens; test: Field trial 2003-2005: soybean post-emergence mortality by seed/foliar treatment; assay type: in vivo; design: concentration or dose not given beside the values
Text: as §2, §3, §4, §1, §5
Post-emergence mortality was obtained by totaling the number of dead plants at the end of the growing season as compared to the number of plants that successfully emerged. Plant mortality counts were taken at developmental stage R8, within the two (2) yield rows and an average of these mortality totals was obtained for all four (4) repetitions. Post-emergence mortality averages and standard deviations for all four (4) repetitions and treatments over three (3) years of testing are compared in FIG. 6. Post-emergence mortality indicates the number of plants that died within the growing season after emergence. Similar to FIG. 5, treatments were either untreated control seed or seeds treated with the polymer in combination with Carbenoxolone. Foliar treatments indicate that the same compound used as a seed treatment was then applied as a foliar spray at a set plant development stage (R1 or R4). The percentage is based on the average of V1 emerged viable seedlings counted compared to the R8 viable plants counted.

[7] = seed treatment combined with R1 foliar, three years of testing
[8] = seed combined with R1 foliar, 2003
[9] = seed combined with R1 foliar, 2004
[10] = seed combined with R1 foliar, 2005
[11] = seed combined with R4 foliar, 2003
[12] = seed combined with R4 foliar, 2004
[13] = seed combined with R4 foliar, 2005
[14] = seed treatment (with polymer), 2003
[15] = seed treatment (with polymer), 2004
[16] = seed treatment (with polymer), 2005

CC1(C)[C@@H](OC(=O)CCC(=O)O)CC[C@]2(C)[C@H]3C(=O)C=C4[C@@H]5C[C@@](C)(C(=O)O)CC[C@]5(C)CC[C@@]4(C)[C@]3(C)CC[C@@H]12 [Carbenoxolone, 3β-hydroxy-11-oxoolean-12-en-30-oic acid 3-hemisuccinate disodium]
increase of viability percentage from the untreated control ([1]; 125 μg/ml): approximately 10% | mortality percentage ([1]; 125 μg/ml): approximately 10.4% | mortality rate ([1]; 1000 μg/ml, plants dead at 12 weeks vs seeds planted): approximately 20% | viability rate ([1]; 1000 μg/ml, viability at 3 weeks vs seeds planted): approximately 80% | improvement of the average yield ([2]; 2003-2005, not statistically significant): approximately 1.5 bushels/acre | increase of yield [2, 7]: 1.5 bushels per acre | increase of yield compared to other treatments [2, 7]: 6.9% | mortality rate ([3]; foliar 500 μg/ml): 26% | mortality rate ([3]; foliar 1000 μg/ml): 22% | pre-emergence mortality, average non-emergent seeds ([4]; R1 foliar only (untreated seed), 2003): 27.50% | pre-emergence mortality, average non-emergent seeds ([4]; R1 foliar only (untreated seed), 2004): 41.25% | pre-emergence mortality, average non-emergent seeds ([4]; R1 foliar only (untreated seed), 2005): 27.08% | pre-emergence mortality, average non-emergent seeds ([4]; R4 foliar only (untreated seed), 2003): 35.41% | pre-emergence mortality, average non-emergent seeds ([4]; R4 foliar only (untreated seed), 2004): 43.75% | pre-emergence mortality, average non-emergent seeds ([4]; R4 foliar only (untreated seed), 2005): 27.91% | pre-emergence mortality, average non-emergent seeds [4, 8]: 30.0% | pre-emergence mortality, average non-emergent seeds [4, 9]: 41.24% | pre-emergence mortality, average non-emergent seeds [4, 10]: 30.0% | pre-emergence mortality, average non-emergent seeds [4, 11]: 36.66% | pre-emergence mortality, average non-emergent seeds [4, 12]: 42.5% | pre-emergence mortality, average non-emergent seeds [4, 13]: 28.75% | pre-emergence mortality, average non-emergent seeds [4, 14]: 26.25% and 26% | average germination higher in 2003 compared to 2004 ([4]; seed treatment (with polymer), 2003 vs 2004): 17% | pre-emergence mortality, average non-emergent seeds [4, 15]: 43.33% and 43% | pre-emergence mortality, average non-emergent seeds [4, 16]: 29.16% and 29% | viability average ([5]; R1 foliar only, 2003): 77.08% | viability average ([5]; R1 foliar only, 2004): 63.33% | viability average ([5]; R1 foliar only, 2005): 77.5% | viability average ([5]; R4 foliar only, 2003): 69.16% | viability average ([5]; R4 foliar only, 2004): 60.83% | viability average ([5]; R4 foliar only, 2005): 76.66% | Dunnett's t Test analysis of viability data compared to the untreated control ([5]; seed combined with R1 foliar): statistically significant difference | viability average [5, 8]: 74.58% | viability average [5, 9]: 63.75% | viability average [5, 10]: 74.58% | viability average [5, 11]: 69.58% | viability average [5, 12]: 62.08% | viability average [5, 13]: 75.83% | viability average ([5]; seed treatment (with polymer), 2003, plants at R8): 78.39% | viability average ([5]; seed treatment (with polymer), 2004, plants at R8): 61.66% | viability average ([5]; seed treatment (with polymer), 2005, plants at R8): 75.41% | post-emergence mortality average ([6]; R1 foliar only, 2003): 5.0% | post-emergence mortality average ([6]; R1 foliar only, 2004): 1.6% | post-emergence mortality average ([6]; R1 foliar only, 2005): 3.33% | post-emergence mortality average ([6]; R4 foliar only, 2003): 6.25% | post-emergence mortality average ([6]; R4 foliar only, 2004): 1.6% | post-emergence mortality average ([6]; R4 foliar only, 2005): 3.33% | post-emergence mortality average [6, 8]: 5.41% and 5% | post-emergence mortality average [6, 10]: 3.33% | post-emergence mortality average [6, 12]: 2.08% | post-emergence mortality average [6, 13]: 2.5% and 2% | post-emergence mortality average [6, 14]: 5.0% | post-emergence mortality average [6, 15]: 2.08% | post-emergence mortality average [6, 16]: 2.5%
